Consider 102 compounds from PubChem BioAssay AID488890 (Southern Research Specialized Biocontainment Screening …, 2010).

Each structure is given as a SMILES string. Results filed as inconclusive are left out. Activity calls are given as the source filed them. No rule for the calls is given here.

The test system of the experiment is Mycobacterium tuberculosis non-replicating, growth inhibition. The experiment in a line: growth inhibition of non-replicating M. tuberculosis (AID 488890).
Turning to `O=C1N/C(=N\c2ccccn2)SC1Cc1ccc(Cl)cc1` (configuration not stated), the half-inhibitory concentration (IC50) is 3.91 µM.

On to `Cc1onc(-c2c(F)cccc2Cl)c1C(=O)O/N=C(\N)c1ccc([N+](=O)[O-])o1`, for which the IC50 was 5.96 µM. As for `CCC(C)n1c(=S)[nH]c2ccccc2c1=O` (configuration not stated), the IC50 is 14.8 µM (inactive).

Consider `N=C1/C(=C\c2coc3ccccc3c2=O)C(=O)N=C2SC=CN12`, for which the IC50 was 21.4 µM (inactive). With `CC(C)(C)Sc1ccc2nc3c(n2c1)CCCC3`, the half-maximal inhibitory concentration (IC50) was 9.32 µM.

In the case of `CC(C)c1ccc(N2C(=O)NC(=O)/C(=C/C=C/c3ccco3)C2=O)cc1`, the half-maximal inhibitory concentration (IC50) is 8.65 µM. The result for `Cc1cc(OCc2cc(C(=O)N(C)CCc3cnn(C)c3)no2)cc(C)c1Cl` reads 30.6 µM (inactive); that for `CCC(C)c1ccc(O)c(/C=N/O)c1` (configuration not stated), 2.43 µM; that for `O=C(N/N=C\c1ccc([N+](=O)[O-])s1)c1cncc(Br)c1`, 2.02 µM. For the compound `O=C(COC(=O)c1ccccn1)Nc1cccc(Cl)c1Cl`, the concentration for half-maximal inhibition (IC50) was 6.11 µM.

As to `Cn1c(/C=C/c2ccc([N+](=O)[O-])o2)nc2ccccc2c1=O`, the IC50 is below 0.1 µM. The result for `CS/C(Nc1cc(Cl)ccc1Cl)=C(/C#N)C(=O)c1ccco1` reads 1.5 µM; that for `O=Cc1coc2ccc3ccccc3c2c1=O`, 16.3 µM (inactive); that for `O=c1oc(-c2cccs2)nc2c1cnn2-c1ccccc1`, 0.43 µM. On to `O=C(NNC(=O)c1cnccn1)c1ccc(Cl)c(Cl)c1`, for which the IC50 is 3.23 µM.

On to `CCOC(=O)C1=C(c2ccccc2)NC(N)=NC1c1ccc(OCc2ccc(Cl)cc2)c(OC)c1` (configuration not stated), for which the 50% inhibitory concentration (IC50) is 4.25 µM. Regarding `c1ccc(CSc2ccc(-c3ccccn3)nn2)cc1`, the IC50 is 8.02 µM.

Regarding `CCOC(=O)CNC(=O)N1c2ccccc2Sc2ccccc21`, the IC50 was 4.81 µM.

On to `O=C(Nc1nc2ccccc2n1CCN1CCCC1)c1ccc(Cl)cc1`, for which the IC50 is 12.5 µM (inactive). Then `CC(/C=C/c1ccccc1F)=N\NC(=O)c1ccccc1`, with 3.87 µM. The result for `CC12CN3CC(C)(CN(C1)C3c1ccc([N+](=O)[O-])o1)C2` (configuration not stated) reads 4.23 µM; that for `N#CC1=C(N)Oc2c(ccc3cccnc23)C1c1ccccc1` (configuration not stated), 33.9 µM (inactive). For the compound `Cn1c(=O)[nH]c(=O)c2c1nc([N+](=O)[O-])n2Cc1ccccc1`, the half-inhibitory concentration (IC50) was 4.58 µM. Then `O=C1NC2(CCC3(CC2)OCCO3)NN1c1ccc(Cl)cc1`, with 0.84 µM; and `O=C(NC1CCCCC1)c1nc2c(nnn2Cc2ccccc2Cl)c(=O)[nH]1`, with 3.72 µM; and `CCCCN(CC)CCNC(=O)c1cc2c(-c3ccc(Cl)cc3)nn(C)c2s1`, with 8.57 µM. The result for `Cc1ccccc1-n1ncc2c([N+](=O)[O-])cc([N+](=O)[O-])cc21` reads 4.83 µM; that for `CC(C)C(=O)N1CCN(c2ccc(NC(=O)c3ccc([N+](=O)[O-])o3)cc2)CC1`, 1.24 µM; that for `CCCCNC(=O)Nc1nnc(-c2ccc(OCC)cc2)o1`, 21.9 µM (inactive). Take `O=C(N/N=C/c1ccc(OC(=O)c2cccs2)cc1)c1ccccn1`: the IC50 was 2.94 µM. The result for `O=C(NC(=S)NCCc1ccccc1)c1ccccc1` reads 10.4 µM (inactive). The result for `CC1C/C(=N/N2C(=O)CSC2=S)CC(C)(C)C1` (configuration not stated) reads 30.6 µM (inactive); that for `CC(C)OC(=O)c1c2c(n3ccccc13)C(=O)c1ccccc1C2=O`, 9.5 µM; that for `COc1cccc(C(=O)N/N=C(/c2ccccc2)c2ccccn2)c1`, 4.04 µM. Then `Cc1cccc(Cc2cnc(NC(=O)C3=NCCN3)s2)c1`, with 4.82 µM; and `O=C(OCc1cccc(F)c1)c1ccc2c(=O)n3c(nc2c1)CCC3`, with 8.62 µM; and `CN1C(=O)CC(N2CCC(c3nc4ccccc4s3)CC2)C1=O` (configuration not stated), with 32.6 µM (inactive).

As to `CCOC(=O)C(=O)NC12CC3CC(CC(C3)C1)C2`, the IC50 was 6.5 µM. The result for `Cc1ccccc1NCC(=O)N/N=C\c1ccc([N+](=O)[O-])s1` reads 3.57 µM; that for `CCCc1cc(C(=O)Nc2ccccc2SC)no1`, 12.1 µM (inactive); that for `COc1cc(NCCC(=O)c2cccs2)c(OC)cc1Cl`, 4.04 µM. Then `CCOC(=O)Cn1cc(C#N)c2ccccc21`, with 6.17 µM. The result for `O=C(COC(=O)COc1ccc(Nc2ccccc2)cc1)NCc1ccco1` reads 10.3 µM (inactive); that for `Cc1ncsc1CCOC(=O)c1ccc([N+](=O)[O-])cc1`, 10.4 µM (inactive); that for `O=C(NCc1ccco1)c1nc2ccccc2s1`, 4.22 µM.

As to `C#CCOc1coc(COC(=O)c2ccccc2)cc1=O`, the IC50 is 48.5 µM (inactive). The result for `COc1ccc2oc(=O)c(/C(C)=N/NC(=O)c3ccncc3)cc2c1` reads 0.84 µM; that for `Cc1cc(-c2n[nH]c(=S)n2/N=C/C(Br)=C/c2ccccc2)n[nH]1`, 19.8 µM (inactive). Consider `C/C(Cn1nnc([N+](=O)[O-])n1)=N\NC(=O)c1ccncc1`, for which the IC50 is 1.63 µM.

Turning to `Cc1ccc(C(=O)Nc2nnc(C3=COCCO3)o2)cc1C`, the IC50 is 9.19 µM. The result for `CCC(C)NCCOc1ccc(C(C)(C)c2ccccc2)cc1` (configuration not stated) reads 10.4 µM (inactive). Then `CCn1c(NC(=O)c2nn(C)cc2Br)nc2ccccc21`, with 4.97 µM; and `CCCCNC(=O)COC(=O)c1cc(F)c(F)cc1Cl`, with 5.61 µM; and `Cc1ccc(C)c(-c2csc(NC(=O)c3cnccn3)n2)c1`, with 3.13 µM. Then `CCOc1ccc(NC(=O)COC(=O)C2(C)CC2(Cl)Cl)c([N+](=O)[O-])c1` (configuration not stated), with 10.8 µM (inactive); and `O=[N+]([O-])c1ccc(Nc2ccccc2O)c2nonc12`, with 5.94 µM.

Turning to `COc1ccc(N=Cc2nc(-c3ccccc3)oc2OC(C)=O)cc1`, the IC50 is 17.4 µM (inactive).

`C/C(CC(=O)Nc1ccc(N(C)C)cc1)=N\NC(=O)c1ccncc1`: the half-maximal inhibitory concentration (IC50) is 0.3 µM. Take `Cc1ccc(NC(=O)CN(C)CC(=O)Nc2ccc(F)c(Cl)c2)cc1`: the IC50 was 26.5 µM (inactive). Then `CCOC(=O)N1CCC(NS(=O)(=O)c2cc3c(cc2Cl)NC(=O)CO3)CC1`, with 4.67 µM; and `COc1ccc(OC(=O)c2cc3ccccc3o2)cc1`, with 18.4 µM (inactive).

`CCOC(=O)C(=NCCOC)NNc1cc(Cl)ccc1Cl`: the IC50 was 30.4 µM (inactive). Then `C/C(=N\NC(=O)c1cc2ccccc2cc1O)c1ccc(C)o1`, with 2.04 µM. The result for `Cc1ccc(NC(=O)CCSc2nnc(Cc3ccccc3)o2)cc1` reads 2.05 µM; that for `O=c1cc(-c2ccccc2Cl)oc2ccc([N+](=O)[O-])c(O)c12`, 1.59 µM; that for `Cc1nc2ccc(Cl)cc2nc(C)/c1=N\O`, 14.4 µM (inactive). Then `Cc1ccc(C(=O)COC(=O)CCc2ccc(S(=O)(=O)N3CCCCC3)cc2)cc1`, with 23 µM (inactive); and `O=S1(=O)N=C(N/N=C/C=C/c2ccccc2)c2ccccc21`, with 8.69 µM; and `O=C(Nc1cccc2ccccc12)c1ccc([N+](=O)[O-])o1`, with 2.11 µM.

Consider `CC1=NNC(=O)/C1=C\c1cn(-c2ccccc2)nc1-c1cccs1`, for which the concentration for half-maximal inhibition (IC50) was 4.96 µM.

`O=C1N(c2ccc3c(c2)OCCO3)C(c2ccccc2)C1(F)F` (configuration not stated): the 50% inhibitory concentration (IC50) was 2.28 µM.

Regarding `O=C(COc1ccccc1)Nc1nnc(-c2ccc3c(c2)CCCC3)o1`, the IC50 was 0.9 µM. Then `Cn1c(CNc2ccccc2O)nc2ccccc21`, with 5.64 µM; and `CCc1ccccc1NC(=O)C1COc2ccccc2O1` (configuration not stated), with 19.8 µM (inactive). Then `O=C(NNC(=O)C12CC3CC(CC(C3)C1)C2)c1ccccn1`, with 6.79 µM; and `CCOc1ccccc1NC(=O)COn1nnc2ccc(Cl)cc21`, with 10.5 µM (inactive); and `CCOC(=O)N1CCN(Cc2cc(Cl)c3cccnc3c2O)CC1`, with 3.55 µM.

Take `CC(=O)c1ccc(NC(=O)c2cc(CC(C)C)on2)cc1`: the IC50 was 3.58 µM. Then `Cc1ccc(NC(=O)CNc2ccc(OC(C)C)cc2)cc1`, with 4.11 µM.

Regarding `O=C(CCc1ccccc1F)N1CCN(c2ccccc2)CC1`, the IC50 was 2.08 µM.

Consider `O=C(CCC1CCCCC1)NCc1cccs1`, for which the IC50 is 0.27 µM. The result for `O=C(Nc1cccnc1)c1cc(Cl)ccc1Cl` reads 18.8 µM (inactive). Then `CCSc1nsc(NC(=O)Nc2ccc(F)cc2F)n1`, with 18.9 µM (inactive). The result for `O=[N+]([O-])c1cc(-c2nc(-c3ccncc3)no2)cc([N+](=O)[O-])c1` reads 1.59 µM; that for `COC(=O)COc1ccc2c(=O)c(-c3ccccc3OC)coc2c1`, 7.87 µM. Regarding `O=C(c1ccccc1)C(CN1CCCC1)c1ccccc1` (configuration not stated), the IC50 was 5.51 µM. As for `N=c1oc2ccc(Cl)cc2cc1C(=O)NC1CCCCCC1`, the IC50 was 11.6 µM (inactive). The result for `COc1ccccc1CCNC(=O)c1ccc(C)o1` reads 2.96 µM; that for `Cc1cccc(Cn2ccc(NC(=O)c3ccc4c(c3)OCO4)n2)c1`, 4.51 µM. Then `COc1cc(CNCCNC(=O)c2nonc2N)ccc1OCc1ccc(Cl)cc1`, with 12.2 µM (inactive); and `CCc1ccc(OCC(=O)c2c(O)c3ccccc3oc2=O)cc1`, with 9.35 µM; and `C=C(C)C1Cc2c(C)nn(-c3nc(C)cc(C)n3)c2C1` (configuration not stated), with 11.6 µM (inactive). The result for `O=C(CCc1ccc(Oc2cc([N+](=O)[O-])cc([N+](=O)[O-])c2)cc1)N1CCCCC1` reads 4.85 µM; that for `Cc1cccc(C(=O)Nc2nnc(-c3cccnc3)o2)c1`, 7.46 µM; that for `O=C(Nc1ncc([N+](=O)[O-])s1)c1ccc2c(c1)OCO2`, 4.75 µM. As for `CC(=O)c1ccc(NC(=O)C(Cc2ccccc2)n2cccc2)cc1` (configuration not stated), the IC50 was 12.5 µM (inactive).

Regarding `Cc1cccc(NCCC(=O)c2ccc([N+](=O)[O-])cc2)c1C`, the IC50 was 3.58 µM.

As to `CCC/C(=N\NC(=O)c1ccco1)c1ccc(Cl)s1`, the IC50 was 9.41 µM. The result for `O=C(N/N=C/c1ccc([N+](=O)[O-])s1)c1ccccc1` reads 5.44 µM.

As to `Nc1nnc(Sc2ncccc2[N+](=O)[O-])s1`, the IC50 was 17 µM (inactive). The result for `O=C(Cc1ccc([N+](=O)[O-])cc1)N/N=C/c1ccc([N+](=O)[O-])o1` reads 21.8 µM (inactive). Then `CCC(C)c1ccc(OCCn2ccnc2)cc1` (configuration not stated), with 10.4 µM (inactive).
